Results: patent US20240082263A1, “PHARMACEUTICAL COMPOSITION FOR COMBINATION THERAPY COMPRISING MELATONIN AND PROSTAGLANDIN E2 FOR TREATING INTESTINAL EPITHELIAL INJURY AS AN ACTIVE INGREDIENT” (PUSAN NATIONAL UNIVERSITY INDUSTRY-UNIVERSITY COOPERATION …, priority 2022, published 2024)

Assays:
Format in all cases: cell-based
[1] = tested on: mouse small intestine epithelial organoids; assay: Flow cytometry of Ly6a-expressing cells in organoids; conditions: FIG. 2; for revival stem cell induction (ratio of Ly6a-expressing cells): flow cytometry, 2-iodomelatonin 200 μM, 8M-PDOT 200 μM, Butaprost 10 μM, Cay10598 10 μM, 5 days; for effect of receptor inhibitor on induction of revival stem cells: co-treated to PGE2 alone group and 8M-PDOT and PGE2 combined group, L-161,982 10 μM, PF-04418948 20 μM
Procedure: (§1) Mouse-derived small intestinal epithelial organoids were obtained as follows. First, small intestine tissue (duodenum about 10-15 cm) was isolated from 8-week-old C57BL/6N mice, and the intestinal lumen was washed with PBS using a 1 ml pipette tip, and the tissue was opened with the lumen facing up, and the remaining mucus, food, and intestinal villi were scraped off and removed. Thereafter, about 25 ml of PBS was filled in a 50 ml tube, and the intestinal tissue was cut to a length of about 2 to 4 mm and washed by shaking vigorously (repeated about 3 to 4 times). The washed intestinal tissue was suspended in 20 ml of Gentle cell dissociation reagent (100-0485, stemcell technologies) and reacted for 15 to 20 minutes while shaking at 20 rpm at room temperature. After the reaction was completed, crypts were separated from the intestinal tissue by vortexing at maximum speed for 5 seconds, and the tissue was removed and centrifuged at 290 g for 5 minutes. The collected cell pellet was resuspended in 10 ml of PBS, centrifuged at 290 g for 5 minutes, and then the cell pellet was suspended in DMEM/F12 medium to confirm the number of crypts. About 500 crypts per 24 well are mixed with 20 μl of cell culture medium (IntestiCult™ Organoid Growth Medium for Mouse, 05005, stemcell technologies) and 20 μl of Matrigel (354230, corning), planted in a dome shape in the center of the well, and placed in a cell culture incubator. After standing for 10 minutes and waiting for the gel to harden, 750 μl of IntestiCult was added and cultured.
In addition, changes in the percentage of cells expressing Ly6a, a specific marker for revival stem cells, were evaluated by flow cytometry. For flow cytometry, mouse small intestine epithelial organoids were treated with melatonin (500 μM) and PGE2 (100 nM) alone or in combination for 5 days, and the organoids were reacted with TrypLE™ Express Enzyme (Thermo Fisher) for 5 minutes at 37° C. to produce single cells. Thereafter, the Ly6a antibody (12-5981-82, Thermo Fisher) fluorescently labeled with PE was diluted 1:250 in PBS containing 3% BSA, and 200 μl of the diluted solution was mixed with the single celled sample and allowed to stand in a dark room at 4° C. for 1 hour. Then, each sample was washed with PBS (300 g, centrifuged for 5 minutes) and immediately analyzed with an Accuri C6 flow cytometer.
In order to further specify the mechanism of inducing revival stem cells, mouse-derived intestinal epithelial organoids were treated with a combination of various melatonin analogues and a specific agonist of the PGE2 receptor. […]

[2] = tested on: Mouse-derived small intestinal epithelial organoids; assay: Microarray gene expression of revival stem cell markers in organoids; conditions: melatonin 500 μm, PGE2 100 nM, alone or in combination, 5 days
Procedure: as §1
The obtained mouse-derived small intestinal epithelial organoids were treated with melatonin (500 μm, 14427, Cayman) and PGE2 (prostaglandin E2, 100 nM; 14010, Cayman) alone or in combination for 5 days, and microarray was performed to track gene expression changes. RNA was extracted from the organoids using the RNeasy Kit (Qiagen), cDNA was synthesized using the GeneChip WT (Whole Transcript) Amplification kit, and analyzed using the Clariom™ S Affymetrix GeneChip Array (Affymetrix).

[3] = tested on: Human-derived intestinal epithelial organoids; assay: Quantitative PCR of Clusterin (CLU) expression in organoids; conditions: same concentrations as in the mouse experiment, FIG. 3
Procedure: Human-derived intestinal epithelial organoids were treated with melatonin and its analogues and PGE2 to confirm whether revival stem cells were induced as observed in mouse intestinal organoids. In order to obtain intestinal epithelial organoids, donated human colon tissue was cut into a size of about 1 cm 2, placed in PBS containing gentamicin (10 μg/ml, Gibco), and allowed to stand at 4° C. for 30 minutes. Then, the tissue was taken out and the mucous layer was scraped off using forceps, and the process of shaking and washing in PBS was repeated 5 to 6 times, as in the case of mice. After washing, the tissue was put into 25 ml of Gentle cell dissociation reagent and reacted by shaking at 200 rpm for 20 minutes at 37° C. After vortexing at the maximum speed, the crypts were separated and cultured by washing in the same process as in mice. At this time, IntestiCult™ Organoid Growth Medium for Human (06010, stemcell technologies) was used as the culture medium. The obtained human intestinal epithelial organoids were treated alone or in combination with melatonin, 8M-PDOT, and PGE2 at the same concentrations as in the mouse experiment, and then the expression level of Clusterin (CLU) was compared through quantitative PCR. […]

Question: Which “revival stem cell induction (ratio of Ly6a-expressing cells)” value [1] does the source give for `CCCC1([C@H](O)C/C=C/[C@H]2[C@H](O)CC(=O)[C@@H]2CCCCCCC(=O)OC)CCC1` [Butaprost] here?
Answer: did not show a specific induction effect

Question: Which “revival stem cell induction (ratio of Ly6a-expressing cells)” value [1] does the source give for `O=C1CC[C@H](/C=C/[C@@H](O)Cc2ccccc2)N1CCCCCCc1nn[nH]n1` [Cay10598] here?
Answer: induction effect similar to or higher than that of PGE2

Question: `CCCCc1nn(-c2ccccc2C(F)(F)F)c(=O)n1Cc1ccc(-c2ccccc2S(=O)(=O)NC(=O)c2sccc2C)cc1` [L-161,982] was tested. Which “effect of receptor inhibitor on induction of revival stem cells” value [1] did it give?
Answer: greatly suppressed

Question: For `COc1ccc2cc(OCC3(C(=O)O)CN(C(=O)c4ccc(F)cc4)C3)ccc2c1` [PF-04418948], which “effect of receptor inhibitor on induction of revival stem cells” value [1] is on record?
Answer: no effect

Question: For `CCCCC[C@H](O)/C=C/[C@H]1[C@H](O)CC(=O)[C@@H]1C/C=C\CCCC(=O)O` [PGE2, prostaglandin E2], which “Cldn4 expression FC (fold change) vs control” value [2] is on record?
Answer: 1.9264

Question: And the “Clu expression FC (fold change) vs control” value [2]?
Answer: 1.7590

Question: What about the “Ly6a expression FC (fold change) vs control” value [2] of the same molecule?
Answer: 9.7349

Question: And the CLU expression [3]?
Answer: increased

Question: With `COc1ccc2[nH]cc(CCNC(C)=O)c2c1` [melatonin] as the molecule, how does the “Cldn4 expression FC (fold change) vs control” value [2] read?
Answer: 1.0013

Question: What about the “Clu expression FC (fold change) vs control” value [2] of the same molecule?
Answer: 1.2252

Question: And the “Ly6a expression FC (fold change) vs control” value [2]?
Answer: 1.1646
